Measurements reported in patent publication US20260217673A1, “NOVEL COMPOUND AS RON INHIBITOR” (LG CHEM, LTD., priority 2022, published 2026).

Columns and labels:
RON = RON (Homo sapiens, UniProt Q04912); experiment: RON inhibitory activity, TR-FRET kinase assay; type: biochemical; conditions: RON protein, ULight-labeled Poly GT substrate
Procedure: To measure the RON inhibitory activity of the example compounds, the IC50 of the compounds was measured using time-resolved fluorescence energy transfer (TR-FRET).
Specifically, the compound was prepared at a concentration of 1 mM with 100% DMSO and serially diluted 10 times through 3-fold dilution. 2 μl of the serially diluted compound was added to a 96-well plate containing 48 μl of 1× kinase reaction buffer (50 mM HEPES (pH 7.4), 0.01% Tween-20, 5 mM DTT, 0.5 mM Na3VO4, 2 mM EGTA, 10 mM MgCl2).
The RON protein was diluted with a RON storage buffer (50 mM Tris-HCl (pH 7.5), 150 mM NaCl, 0.5 mM EDTA, 0.02% Triton X-100) to a concentration of 49.3 nM, and then diluted again with 1× kinase reaction buffer to be 0.4 nM. As a substrate cocktail, a RON-specific substrate mixture (40 μM ULight-labeled Poly GT, 100 nM ATP) was prepared at a concentration twice the final reaction concentration.
(§1) After that, a 384-well plate was prepared, and 2.5 μl of the diluted example compound was added to each of the experimental group wells, and 2.5 μl of a 4% DMSO solution was dispensed into high control wells and low control wells.
(§2) Afterward, 2.5 μl of 0.4 nM RON was dispensed into the high control wells and the experimental group wells, and 2.5 μl of 1× kinase reaction buffer was added to the low control wells, and after centrifugation at 1000 RPM for 40 seconds at room temperature, the mixtures were incubated at room temperature for 20 to 30 minutes. Then, 5 μl of the substrate cocktail (2×) was dispensed into all wells, and after centrifugation at 1000 RPM for 40 seconds at room temperature, the mixtures were incubated at room temperature for 60 minutes. Afterward, 5 μl of 30 mM EDTA was added to all wells to terminate the reaction, and the mixtures were incubated again at room temperature for 5 minutes. Thereafter, 5 μl of 4× phosphotyrosine antibodies (Perkin Elmer) containing europium was added to all wells and incubated at room temperature for 60 minutes. After the incubation, the 384-well-plate was read with a Vison plate reader. At this time, the excitation wavelength was 340 nm, and the emission wavelengths were 620 nm and 665 nm. The IC50 value of each example compound was derived using the GraphPd Prism7 program.

cMET = cMET (Homo sapiens, UniProt P08581); experiment: MET (cMET) enzyme inhibitory activity, TR-FRET kinase assay; type: biochemical; conditions: cMET protein, TK peptide substrate
Procedure: In addition, to measure cMET enzyme activity inhibition, an experiment was performed by the same method as the experiment for measuring the RON enzyme activity inhibition.
Specifically, the compound was prepared at a concentration of 1 mM with 100% DMSO and serially diluted 10 times through 3-fold dilution. 2 μl of the serially diluted compound was added to a 96-well plate containing 48 μl 1× kinase reaction buffer (50 mM HEPES (pH 7.4), 0.05% BSA, 0.005% Tween-20, 1 mM DTT, 0.5 mM MnCl2, 20 mM MgCl2).
The cMET protein was diluted in a cMET storage buffer (50 mM Tris-HCl (pH 7.5), 150 mM NaCl, 0.05% Brij35, 1 mM DTT, 10% glycerol) to a concentration of 263 nM, and then diluted again with 1× kinase reaction buffer to 2 nM. As a substrate cocktail, a MET-specific substrate mixture (5 μM TK peptide, 10 mM ATP) was prepared at a concentration twice the final reaction concentration.
as §1
as §2, with “μl of 2 nM cMET” for “μl of 0.4 nM RON”, “2 nM cMET was dispensed” for “0.4 nM RON was dispensed”, “was dispensed to the high” for “was dispensed into the high”, “μl of 90 mM EDTA” for “μl of 30 mM EDTA”

Sequence of RON (Q04912 25-1400, species assumed): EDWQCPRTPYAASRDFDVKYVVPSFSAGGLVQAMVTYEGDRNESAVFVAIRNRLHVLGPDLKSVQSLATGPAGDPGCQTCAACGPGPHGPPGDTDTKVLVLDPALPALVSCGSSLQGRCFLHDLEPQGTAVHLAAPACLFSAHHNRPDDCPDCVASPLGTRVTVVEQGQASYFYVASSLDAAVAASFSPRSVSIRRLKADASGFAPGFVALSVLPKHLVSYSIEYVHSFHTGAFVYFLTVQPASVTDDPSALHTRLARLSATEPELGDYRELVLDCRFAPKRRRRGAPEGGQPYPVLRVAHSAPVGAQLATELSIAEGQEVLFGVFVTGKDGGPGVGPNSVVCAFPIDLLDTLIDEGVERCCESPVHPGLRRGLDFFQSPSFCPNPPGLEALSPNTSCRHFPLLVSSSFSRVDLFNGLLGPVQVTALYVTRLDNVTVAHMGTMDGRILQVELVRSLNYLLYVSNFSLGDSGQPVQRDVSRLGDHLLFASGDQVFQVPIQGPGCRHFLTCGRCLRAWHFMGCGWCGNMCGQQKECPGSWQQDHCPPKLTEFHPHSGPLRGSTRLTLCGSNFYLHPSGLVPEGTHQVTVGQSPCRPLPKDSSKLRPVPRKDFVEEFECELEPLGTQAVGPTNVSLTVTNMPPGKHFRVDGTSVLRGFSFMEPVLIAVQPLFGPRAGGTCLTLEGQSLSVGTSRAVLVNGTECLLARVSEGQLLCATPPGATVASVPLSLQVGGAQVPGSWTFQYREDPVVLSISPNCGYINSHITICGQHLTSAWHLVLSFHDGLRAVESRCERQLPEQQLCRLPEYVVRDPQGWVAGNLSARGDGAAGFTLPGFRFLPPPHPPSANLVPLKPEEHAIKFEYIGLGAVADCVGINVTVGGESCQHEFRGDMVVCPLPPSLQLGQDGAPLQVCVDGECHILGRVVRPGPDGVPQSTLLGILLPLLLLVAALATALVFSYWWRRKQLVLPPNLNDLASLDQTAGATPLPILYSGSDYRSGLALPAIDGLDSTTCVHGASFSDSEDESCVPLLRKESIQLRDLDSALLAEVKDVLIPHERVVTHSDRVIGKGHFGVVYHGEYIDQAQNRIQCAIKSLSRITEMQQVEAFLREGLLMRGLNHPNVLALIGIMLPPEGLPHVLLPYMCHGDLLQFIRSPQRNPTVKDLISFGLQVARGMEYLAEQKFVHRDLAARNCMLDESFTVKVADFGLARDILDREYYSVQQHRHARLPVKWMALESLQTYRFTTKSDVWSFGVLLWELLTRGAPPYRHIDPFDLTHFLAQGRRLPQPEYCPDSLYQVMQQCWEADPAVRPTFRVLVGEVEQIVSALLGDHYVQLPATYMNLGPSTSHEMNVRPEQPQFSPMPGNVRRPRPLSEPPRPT
Sequence of cMET (P08581 25-1390): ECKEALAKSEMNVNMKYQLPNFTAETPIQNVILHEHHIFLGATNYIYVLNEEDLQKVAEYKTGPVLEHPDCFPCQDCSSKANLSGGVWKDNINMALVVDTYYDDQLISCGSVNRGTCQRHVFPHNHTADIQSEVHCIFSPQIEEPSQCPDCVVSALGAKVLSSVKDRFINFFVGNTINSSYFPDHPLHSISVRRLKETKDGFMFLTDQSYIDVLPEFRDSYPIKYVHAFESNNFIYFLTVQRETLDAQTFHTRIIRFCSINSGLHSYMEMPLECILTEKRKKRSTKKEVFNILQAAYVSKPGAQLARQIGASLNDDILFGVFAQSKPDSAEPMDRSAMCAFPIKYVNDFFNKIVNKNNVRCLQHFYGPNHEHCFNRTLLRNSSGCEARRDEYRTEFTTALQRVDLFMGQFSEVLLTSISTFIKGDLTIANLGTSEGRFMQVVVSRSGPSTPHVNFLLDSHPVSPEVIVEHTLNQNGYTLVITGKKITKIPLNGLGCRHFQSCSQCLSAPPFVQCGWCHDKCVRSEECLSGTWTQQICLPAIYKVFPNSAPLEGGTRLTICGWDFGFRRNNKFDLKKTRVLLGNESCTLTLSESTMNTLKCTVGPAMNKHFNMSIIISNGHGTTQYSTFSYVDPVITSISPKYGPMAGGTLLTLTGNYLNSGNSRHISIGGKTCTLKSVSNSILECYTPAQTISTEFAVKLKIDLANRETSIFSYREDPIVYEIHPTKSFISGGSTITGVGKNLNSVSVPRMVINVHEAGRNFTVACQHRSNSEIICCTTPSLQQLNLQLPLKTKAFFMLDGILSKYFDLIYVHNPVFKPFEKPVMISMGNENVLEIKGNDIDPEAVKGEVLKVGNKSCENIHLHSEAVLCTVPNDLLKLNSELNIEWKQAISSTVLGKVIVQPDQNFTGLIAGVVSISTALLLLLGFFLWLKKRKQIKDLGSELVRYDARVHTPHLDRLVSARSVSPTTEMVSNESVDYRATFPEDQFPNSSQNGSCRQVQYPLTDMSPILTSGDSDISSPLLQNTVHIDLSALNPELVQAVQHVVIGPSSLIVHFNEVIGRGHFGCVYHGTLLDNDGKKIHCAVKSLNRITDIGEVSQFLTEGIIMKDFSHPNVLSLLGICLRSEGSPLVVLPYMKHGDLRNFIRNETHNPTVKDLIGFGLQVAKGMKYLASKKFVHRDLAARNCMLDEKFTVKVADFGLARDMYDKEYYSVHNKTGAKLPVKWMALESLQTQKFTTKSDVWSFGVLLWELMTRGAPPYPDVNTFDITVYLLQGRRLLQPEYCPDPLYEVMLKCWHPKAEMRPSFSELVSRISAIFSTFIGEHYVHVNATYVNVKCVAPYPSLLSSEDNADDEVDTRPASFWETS

SMILES | IC50 (RON) [nM] | IC50 (cMET) [nM]
Nc1nccc(Oc2c(F)cc(NC(=O)c3cnn(-c4ccccc4)c3C(F)(F)F)cc2F)c1Cl [Example 1, N-(4-((2-amino-3-chloropyridin-4-yl)oxy)-3,5-difluorophenyl)-1-phenyl-5-(trifluoromethyl)-1H-pyrazole-4-carboxamide] | < 50 | > 5000
Nc1nccc(Oc2cc(F)c(NC(=O)c3cnn(-c4ccccc4)c3C(F)(F)F)cc2F)c1Cl [Example 6, N-(4-((2-amino-3-chloropyridin-4-yl)oxy)-2,5-difluorophenyl)-1-phenyl-5-(trifluoromethyl)-1H-pyrazole-4-carboxamide] | 50 to 500 | > 5000
Nc1nccc(Oc2cc(F)c(NC(=O)c3cnn(-c4ccccc4)c3C(F)(F)F)c(F)c2)c1Cl [Example 8, N-(4-((2-amino-3-chloropyridin-4-yl)oxy)-2,6-difluorophenyl)-1-phenyl-5-(trifluoromethyl)-1H-pyrazole-4-carboxamide] | 500 to 5000 | > 5000
Nc1ncnc(Oc2c(F)cc(NC(=O)c3cnn(-c4ccccc4)c3C(F)(F)F)cc2F)c1Cl [Example 9, N-(4-((6-amino-5-chloropyrimidin-4-yl)oxy)-3,5-difluorophenyl)-1-phenyl-5-(trifluoromethyl)-1H-pyrazole-4-carboxamide] | < 50 | > 5000
Nc1ncnc(Oc2c(F)cc(NC(=O)c3cnn(-c4ncccc4F)c3C(F)(F)F)cc2F)c1Cl [Example 10, N-(4-((6-amino-5-chloropyrimidin-4-yl)oxy)-3,5-difluorophenyl)-1-(3-fluoropyridin-2-yl)-5-(trifluoromethyl)-1H-pyrazole-4-carboxamide] | < 50 | 500 to 5000
Nc1ncnc(Oc2c(F)cc(NC(=O)c3cnn(-c4ncccc4Cl)c3C(F)(F)F)cc2F)c1Cl [Example 11, N-(4-((6-amino-5-chloropyrimidin-4-yl)oxy)-3,5-difluorophenyl)-1-(3-chloropyridin-2-yl)-5-(trifluoromethyl)-1H-pyrazole-4-carboxamide] | < 50 | 500 to 5000
Nc1ncnc(Oc2c(F)cc(NC(=O)c3cnn(-c4ncccn4)c3C(F)(F)F)cc2F)c1Cl [Example 12, N-(4-((6-amino-5-chloropyrimidin-4-yl)oxy)-3,5-difluorophenyl)-1-(pyrimidin-2-yl)-5-(trifluoromethyl)-1H-pyrazole-4-carboxamide] | < 50 | 500 to 5000
Nc1nccc(Oc2c(F)cc(NC(=O)c3cnn(-c4ccccc4)c3C(F)(F)F)cc2F)c1I [Example 13, N-(4-((2-amino-3-iodopyridin-4-yl)oxy)-3,5-difluorophenyl)-1-phenyl-5-(trifluoromethyl)-1H-pyrazole-4-carboxamide] | < 50 | 500 to 5000
Nc1nccc(Oc2c(F)cc(NC(=O)c3cnn(-c4ccccn4)c3C(F)(F)F)cc2F)c1I [Example 14, N-(4-((2-amino-3-iodopyridin-4-yl)oxy)-3,5-difluorophenyl)-1-(pyridin-2-yl)-5-(trifluoromethyl)-1H-pyrazole-4-carboxamide] | < 50 | > 5000
Nc1nccc(Oc2c(F)cc(NC(=O)c3cnn(-c4cccnn4)c3C(F)(F)F)cc2F)c1I [Example 17, N-(4-((2-amino-3-iodopyridin-4-yl)oxy)-3,5-difluorophenyl)-1-(pyridazin-3-yl)-5-(trifluoromethyl)-1H-pyrazole-4-carboxamide] | < 50 | 500 to 5000
Nc1nccc(Oc2c(F)cc(NC(=O)c3cnn(-c4ncccn4)c3C(F)(F)F)cc2F)c1I [Example 18, N-(4-((2-amino-3-iodopyridin-4-yl)oxy)-3,5-difluorophenyl)-1-(pyrimidin-2-yl)-5-(trifluoromethyl)-1H-pyrazole-4-carboxamide] | < 50 | 500 to 5000
Nc1nccc(Oc2c(F)cc(NC(=O)c3cnn(-c4ccccc4)c3C(F)(F)F)cc2F)c1C1CCOCC1 [Example 19, N-(4-((2-amino-3-(tetrahydro-2H-pyran-4-yl)pyridin-4-yl)oxy)-3,5-difluorophenyl)-1-phenyl-5-(trifluoromethyl)-1H-pyrazole-4-carboxamide] | < 50 | 500 to 5000
Nc1nccc(Oc2c(F)cc(NC(=O)c3cnn(-c4ncccc4F)c3C(F)(F)F)cc2F)c1C1CCOCC1 [Example 20, N-(4-((2-amino-3-(tetrahydro-2H-pyran-4-yl)pyridin-4-yl)oxy)-3,5-difluorophenyl)-1-(3-fluoropyridin-2-yl)-5-(trifluoromethyl)-1H-pyrazole-4-carboxamide] | < 50 | 50 to 500

Further lines, results first:

IC50 (RON) [nM] | IC50 (cMET) [nM] | SMILES
< 50 | 500 to 5000 | Nc1nccc(Oc2c(F)cc(NC(=O)c3cnn(-c4ncccn4)c3C(F)(F)F)cc2F)c1Cl [Example 2, N-(4-((2-amino-3-chloropyridin-4-yl)oxy)-3,5-difluorophenyl)-1-(pyrimidin-2-yl)-5-(trifluoromethyl)-1H-pyrazole-4-carboxamide]
< 50 | 500 to 5000 | Nc1nccc(Oc2c(F)cc(NC(=O)c3cnn(-c4cccnn4)c3C(F)(F)F)cc2F)c1Cl [Example 3, N-(4-((2-amino-3-chloropyridin-4-yl)oxy)-3,5-difluorophenyl)-1-(pyridazin-3-yl)-5-(trifluoromethyl)-1H-pyrazole-4-carboxamide]
< 50 | > 5000 | CCc1c(C(=O)Nc2cc(F)c(Oc3ccnc(N)c3Cl)c(F)c2)cnn1-c1ncccc1F [Example 4, N-(4-((2-amino-3-chloropyridin-4-yl)oxy)-3,5-difluorophenyl)-5-ethyl-1-(3-fluoropyridin-2-yl)-1H-pyrazole-4-carboxamide]
< 50 | > 5000 | Nc1nccc(Oc2cc(F)c(NC(=O)c3cnn(-c4ncccc4F)c3C(F)(F)F)cc2F)c1Cl [Example 5, N-(4-((2-amino-3-chloropyridin-4-yl)oxy)-2,5-difluorophenyl)-1-(3-fluoropyridin-2-yl)-5-(trifluoromethyl)-1H-pyrazole-4-carboxamide]
50 to 500 | > 5000 | Nc1nccc(Oc2cc(F)c(NC(=O)c3cnn(-c4ncccc4F)c3C(F)(F)F)c(F)c2)c1Cl [Example 7, N-(4-((2-amino-3-chloropyridin-4-yl)oxy)-2,6-difluorophenyl)-1-(3-fluoropyridin-2-yl)-5-(trifluoromethyl)-1H-pyrazole-4-carboxamide]
< 50 | 50 to 500 | Nc1nccc(Oc2c(F)cc(NC(=O)c3cnn(-c4ncccc4F)c3C(F)(F)F)cc2F)c1I [Example 15, N-(4-((2-amino-3-iodopyridin-4-yl)oxy)-3,5-difluorophenyl)-1-(3-fluoropyridin-2-yl)-5-(trifluoromethyl)-1H-pyrazole-4-carboxamide]
< 50 | 50 to 500 | Nc1nccc(Oc2c(F)cc(NC(=O)c3cnn(-c4ncccc4Cl)c3C(F)(F)F)cc2F)c1I [Example 16, N-(4-((2-amino-3-iodopyridin-4-yl)oxy)-3,5-difluorophenyl)-1-(3-chloropyridin-2-yl)-5-(trifluoromethyl)-1H-pyrazole-4-carboxamide]
